Experimental data published in US5389621A, “Method of enhancing the anticoagulant effects of aspirin using salicylamide” (University of Medicine and Dentistry of New Jersey, priority 1994, dated 1995).
Read-outs that look alike come from different tables or passages of the source.

What was measured:
[1] = cited from earlier work
[2] = Acid-hydrolyzed fraction of SA in liver, kidney and plasma after 14C-aspirin; settings: low or high dose combinations
Method: Forty-eight rats were divided into two groups. The first group of rats was administered ASA, SAM or their combination in a dose approximately equal (w/w) to that in the commercially available combinations, e.g., BC® formula, when administered to humans, i.e., 10 and 3 mg/kg of ASA and SAM, respectively. The second group was administered double the dosage received by the first group.
For each sample to be analyzed, 2 aliquots each of 300 mg of tissue (liver or kidney) or 100 μl of plasma, were placed in polyethylene wide-pore tubes (Fisherbrand) along with 0.5 ml of physiological saline. The tissues were homogenized using an electrical homogenizer (Polytron, Brinkmann Instruments, Westbury, N.Y.) on high speed for 2 minutes for each sample. The tubes were dipped in ice during this procedure to minimize any loss of SA by sublimation from the heat generated by the high speed of the homogenization.
The homogenates were transferred by pipette to pyrex screw-top test tubes and the tubes were then divided into 2 groups: […]
The supernatants were filtered through disposable 0.45 μm Acrodisc filters and 100 μl were injected onto HPLC. […] The radioactivity in the vials was measured by Beckman LS scintillation counter and the difference in radioactivity between the control vials and the acidhydrolyzed ones was indicative of SA conjugates as well as part of the protein-bound SA in the tissue samples. […]

[3] = system: cyclooxygenase; settings: in vitro, cited from earlier work
[4] = oral, rats; cited from earlier work
[5] = system: lyso-PAF:acetyl-CoA acetyltransferase; settings: cited from earlier work

Structure (SMILES) | Biliary excretion ([1]; in vivo) | Bound to plasma proteins ([1]; in vivo) | Hydrolysis in vivo to a salicylate ([1]; in vivo) | First-pass metabolism of the administered dose ([1]; oral) | Change of acid-hydrolyzed SA fraction in liver [2] | Effect on cyclooxygenase [3] | Effect on cyclooxygenase ([3]; listed as salicylamide) | Intestinal and hepatic extraction and/or metabolism of oral dose [4] | Effect on lyso-PAF:acetyl-CoA acetyltransferase [5]
NC(=O)c1ccccc1O [SAM, Salicylamide] | negligible | About 50% | not hydrolyzed in vivo to form a salicylate | up to 70% | did not affect | no effect in vitro on cyclooxygenase | does not have a demonstrable effect on the cyclooxygenase pathway in vitro |  | 
CC(=O)Oc1ccccc1C(=O)O [ASA, acetylsalicylic acid] |  |  |  |  |  |  |  | More than 60% | inhibitory effect
